Values joined by “and” are separate entries in the source; they are usually repeats but may differ in a detail not shown here. Equal values may be shown once. Read-outs that look alike come from different tables or passages of the source.
Legend:
[1] = test system: MDA-MB-468 human breast cancer cell line grown as spheroids; details: cited from earlier work
[2] = test system: Chinese hamster V79 lung fibroblasts; assay: clonogenic survival assay (colony formation) after single-agent treatment; type: cell-based; details: for surviving fraction for drug alone: 0.63 μM daunomycin or 2.50 μM doxorubicin, 2.5 h; for mean lethal concentration: extracellular concentration for 37% survival, 2.5 h exposure
Procedure: The surviving fraction SF of cells exposed to the agent was assessed with a clonogenic survival assay and plotted as a function of several different variables including extracellular concentration, <I>net, absorbed dose (Gy), and mean cellular activity (mBq/cell). The resulting survival curves were of a 1- or 2-component exponential form. Analogous to the cellular activity and absorbed dose required to achieve 37% survival, a37 and D37, the net mean lethal fluorescence intensity of the drug required to achieve 37% survival, <I>net37 , can be defined similarly and obtained from plots of SF versus <I>net.
To evaluate ^210Po cytotoxicity, the surviving fraction was plotted as a function of EuTc-citrate net MFI, mean cellular uptake of ^210Po, and mean absorbed dose to the nucleus (FIG. 4A). […] The relationships between cell survival and EuTc-citrate net MFI or cellular ^210Po activity can be described by an exponential function SF=exp(−A/A1). The relationship between cell survival and drug net MFI (or extracellular concentration) for daunomycin and doxorubicin are illustrated in FIGS. 4B and 4C, respectively. For both drugs, clonogenic survival and cellular drug uptake (as determined by net MFI) are related via two component exponential functions SF=b exp(−A/A1)+(1-b) exp(−A/A2). A is the intracellular activity of ^210Po-citrate, absorbed dose to the cell nucleus, or drug concentration. Least squares fits of the survival data to this function were performed. The variable b is a fitted parameter.
Chinese hamster V79 lung fibroblasts were used. Two different formulations of minimum essential media (MEMA and MEMB) were used, as known in the literature. All media and supplements were Gibco (Carlsbad, CA), including fetal calf serum (catalog no. 10437, lot no. 539574). For routine maintenance, cells were grown as monolayers in Falcon 25-cm^2 tissue culture flasks (BD, Franklin Lakes, NJ, catalog no. 353082) at 37° C., 5% CO2-95% air, and subcultured twice weekly. For experiments, V79 cells (passage 4-11) were transferred into Falcon 225-cm^2 flasks (BD, catalog no. 353138), and were used upon reaching 80%-90% confluence.
Cells grown in 225-cm^2 flasks were trypsinized (0.25% trypsin, Gibco, catalog no. 25200-056), and MEMB was added to obtain 2×10^6 cells/mL. Aliquots of 1 mL were placed in Falcon 17×100 mm polypropylene tubes (BD, catalog no. 352018) and placed on a rocker-roller (Thermo Fisher, Fair Lawn, NJ) for 3 hours at 37° C. with 5% CO2 and 95% air. After this conditioning period, cells were treated with drug or radiochemical. Cell cultures were exposed to radiochemical and drugs for 0.5 and 2.5 h, respectively.
^210PoCl4 in 2 mol/L HCI was obtained at 370 MBq/mL from Eckert&Ziegler Isotope Products (Valencia, CA, catalog no. 6310). ^210Po-citrate was prepared as follows. Briefly, PoCl4 solution was mixed with 1 mol/L sodium citrate in the ratio of 1:7 (final pH 5.8), and was diluted with MEMB to a volume of 4 mL (final pH 6.9). One milliliter of MEMB containing 210Po-citrate was added to the 1 mL of conditioned V79 cultures (2×10^6 cells/mL), to arrive at a concentration of 0-250 kBq/mL (pH 6.9-7.0). After incubating for 30 min, the cells were washed 2× with MEMB, resuspended in 2 mL of MEMB, and incubated on a rocker-roller for 2.5 h to simulate concomitant drug exposure. The cells were resuspended in a 5 mL of MEMB, passed 5× through a needle, and counted with a Beckman Coulter Model Z2 (Brea, CA). Aliquots (500 μL) of the cell suspension were transferred to vials, mixed with 5 mL Ecolume (MP Biomedical, Solon, OH, catalog no. 882470), and counted with a Beckman Coulter LS6500, and the mean activity per cell was determined (efficiency, 50% as per prior studies). Aliquots of about 5×10^5 cells were counted in triplicate for ^210Po activity and the cpm ranged from 10^3-10^5. The triplicate measurements kept statistical variations to a minimum. […]

V79 cells [3] = assay: cellular uptake by flow cytometry (fluorescence intensity per cell, MFI); type: cell-based, Chinese hamster; details: linear least squares fit; for slope of net MFI versus extracellular drug concentration, low concentrations: Cdauno<0.6 μmol/L, Cdoxo<1 μmol/L; for slope of net MFI versus extracellular drug concentration, high concentrations: Cdauno>0.6 μmol/L (+1161), Cdoxo>1 μmol/L (+29)
Procedure: Briefly, flow cytometry was used to quantify their mean fluorescence intensity (MFI) per cell, <I>, as a function of the concentration of the agent in the cell culture medium. The net mean fluorescence intensities per cell, <I>net, were determined by subtracting control autofluorescence <I>control, according to the following equation: […]
^210Po-Citrate. The uptake of ^210Po-citrate was determined on a cell-by-cell basis by flow cytometric techniques, using ^210Po-free citrate. Briefly, V79 cells (2×10^6 cells/mL) were treated with 0-3 mmol/L of citrate and incubated on a rocker-roller as described earlier. Cellular uptake of citrate was tracked using an europium tetracycline (EuTc) conjugate. Samples were washed 2× with 10 mmol/L MOPS buffer (Sigma, St. Louis, catalog no. M3183), after a 30 min exposure to citrate. The cells were resuspended in 1 mL of MOPS buffer containing EuTc (Sigma, catalog nos. 203254 for Eu and T7660 for Tc), transferred into 7 ml polystyrene flow cytometry tubes (BD, catalog no. 352054), and were incubated at room temperature (˜22° C.) in the dark for 30 min. The final concentration of EuTc was 100 μmol/L. EuTc forms a ternary complex with citrate (EuTc-citrate) which is excitable at 488 nm, and its emission can be captured within the wavelengths transmitted by the 610/20 filter. After washing 2× with MOPS buffer, the samples were resuspended in 1 mL of MOPS buffer, passed 5× through a 21-gauge needle, and were analyzed by flow cytometry using an LSR II flow cytometer (BD), equipped with a 488 nm laser. Cellular incorporation of citrate, expressed in terms of the fluorescence intensity per cell or mean fluorescence intensity (MFI) of EuTc-citrate, was used as a surrogate measure cellular uptake of ^210Po-citrate.
To determine the cellular uptake of daunomycin and doxorubicin, the cells were treated with 0-10 μmol/L of each drug in MEMB and incubated on a rocker-roller for 2.5 h. The cells were washed 2× with phosphate buffered saline (PBS), resuspended in 1 mL of PBS, passed 5× through a needle, and were immediately subjected to flow cytometric analysis. The 488 nm laser was used to excite intracellular daunomycin and doxorubicin, and the emission spectra were captured within the wavelengths transmitted by the 575/26 and 530/30 filters, respectively. Cellular incorporation of drugs was also expressed as MFI.

V79 cells [4] = assay: clonogenic survival after combined treatment with 210Po-citrate and a chemotherapy drug; type: cell-based, Chinese hamster; details: for effect on radiotoxicity of 210Po-citrate α-particles: 0.63 μM daunomycin or 2.50 μM doxorubicin plus graded 210Po-citrate, corrected for drug toxicity
Procedure: (§1) ^210PoCl4 in 2 mol/L HCI was obtained at 370 MBq/mL from Eckert&Ziegler Isotope Products (Valencia, CA, catalog no. 6310). ^210Po-citrate was prepared as follows. Briefly, PoCl4 solution was mixed with 1 mol/L sodium citrate in the ratio of 1:7 (final pH 5.8), and was diluted with MEMB to a volume of 4 mL (final pH 6.9). One milliliter of MEMB containing 210Po-citrate was added to the 1 mL of conditioned V79 cultures (2×10^6 cells/mL), to arrive at a concentration of 0-250 kBq/mL (pH 6.9-7.0). After incubating for 30 min, the cells were washed 2× with MEMB, resuspended in 2 mL of MEMB, and incubated on a rocker-roller for 2.5 h to simulate concomitant drug exposure. The cells were resuspended in a 5 mL of MEMB, passed 5× through a needle, and counted with a Beckman Coulter Model Z2 (Brea, CA). Aliquots (500 μL) of the cell suspension were transferred to vials, mixed with 5 mL Ecolume (MP Biomedical, Solon, OH, catalog no. 882470), and counted with a Beckman Coulter LS6500, and the mean activity per cell was determined (efficiency, 50% as per prior studies). Aliquots of about 5×10^5 cells were counted in triplicate for ^210Po activity and the cpm ranged from 10^3-10^5. The triplicate measurements kept statistical variations to a minimum. Each sample was serially diluted and plated in Falcon 60×15 mm tissue culture dishes for colony formation. Cultures were incubated for 7 days, and the colonies were fixed in 95% ethanol, stained with 0.01% Amido Black, washed in tap-water, air-dried, and counted.
After conditioning, the cell cultures were treated with daunomycin (Sigma, catalog no. D8809) or doxorubicin (Sigma, catalog no. 44583) to a final concentration of 0-10 μmol/L in MEMB. The tubes were returned to the rocker-roller for 2.5 h. The cells were then processed for colony formation as described above.
To evaluate cytotoxicity of combined treatment of V79 cells with ^210Po-citrate and daunomycin, or ^210Po-citrate and doxorubicin, the surviving fraction of clonogens was plotted as a function of mean cellular uptake of ^210Po (FIG. 9) and as a function of mean absorbed dose to the cell nucleus. When cells were only treated with ^210Po-citrate, the survival curve can be described by a 1-component exponential function. When cells were concomitantly treated with a single drug concentration and varying amounts of ^210Po-citrate, the dose-response curves followed a 2-component exponential function. The data corresponding to the combined treatments were then corrected for drug toxicity, by dividing the surviving fraction for each datum point by the surviving fraction for drug alone (SF=0.10), and replotted in FIG. 9. Both of the corrected cell survival curves emerged below those obtained for ^210Po-citrate alone.

V79 cells [5] = assay: cellular 210Po activity, biologic clearance and cellular dosimetry (liquid scintillation counting); type: cell-based, Chinese hamster; details: for intracellular 210Po activity: corresponding to 0.1 mmol/L citrate
Procedure: The absorbed dose to the cell nucleus was determined as known in the art. Since cells were treated with ^210Po-citrate as a single-cell suspension and were subsequently seeded for colony formation, the small contribution of cross-irradiation from neighboring cells in the colony can be ignored because it is essentially counterbalanced by the reduction in self-dose caused by flattening of cells during the colony forming period. The data was least-squares fitted to obtain a mean biologic half-time of 11.6 h. […] This Tc, the maintenance period of 2.5 h, the subcellular distribution of ^210Po-citrate (28% nucleus, 72% cytoplasm) for V79 cells and published S values, were used to calculate a mean absorbed dose to the cell nucleus of 5.8 Gy/mBq of ^210Po incorporated into the cell.
as §1
To determine the biologic clearance of ^210Po from the cells, 4×10^6 cells/mL were treated with ^210Pocitrate as described above. After two washes with MEMB, the cells were resuspended in 5 mL of MEMB, passed 5× through a needle, and Coulter counted. Aliquots of 500 μL of cells were transferred to vials and mixed with Ecolume. The remaining cell suspension was plated into 25-cm^2 flasks (1.0, 0.5, 0.5, 0.2 and 0.2×10^6 cells/flask). The cultures were harvested after 24, 48, 72, and 96 h, respectively. Each sample was processed for cell counting and liquid scintillation counting as described. All vials were counted after the last harvest. The ratio of cellular activity at each time point to that immediately after treatment was calculated and plotted.

[6] = test system: Chinese hamster V79 lung fibroblasts; details: obtained previously, older S values; cited from earlier work
[7] = 0.63 μM daunomycin + 210Po-citrate

111In-DTPA-human epidermal growth factor [^111In-EGF]
activity distribution, cell surface ([1]; 24 h treatment): 62% | activity distribution, cytoplasm ([1]; 24 h treatment): 22% | activity distribution, nucleus ([1]; 24 h treatment): 16% | distribution of 111In in the spheroid ([1]; after a 24-h treatment): fully internalized | penetration into the spheroid ([1]; after a 1 h treatment): ~20 μm | distribution of 111In in the spheroid ([1]; treated for 1 h): accumulated mainly on the periphery of the spheroid

COc1cccc2c1C(=O)c1c(O)c3c(c(O)c1C2=O)C[C@@](O)(C(C)=O)C[C@@H]3O[C@H]1C[C@H](N)[C@H](O)[C@H](C)O1 [daunomycin]
surviving fraction for drug alone [2]: 0.10 | mean lethal concentration ([2]; V79 cells): 0.24 µmol/L | lethality relative to doxorubicin ([2]; low extracellular concentrations, V79 cells): ~5 × | slope of net MFI versus extracellular drug concentration, low concentrations (V79 cells [3]): 5922 (μmol/L)^−1 | slope of net MFI versus extracellular drug concentration, high concentrations (V79 cells [3]): 2480 (μmol/L)^−1 | absorbed dose beyond which the enhancement was independent of dose (V79 cells [4]; [7]): about 0.5 Gy | cellular activity beyond which the enhancement was independent of dose (V79 cells [4]; [7]): ~0.09 mBq/cell | effect on radiotoxicity of 210Po-citrate α-particles (V79 cells [4]): enhance the radiotoxicity of α-particles

COc1cccc2c1C(=O)c1c(O)c3c(c(O)c1C2=O)C[C@@](O)(C(=O)CO)C[C@@H]3O[C@H]1C[C@H](N)[C@H](O)[C@H](C)O1 [doxorubicin]
surviving fraction for drug alone [2]: 0.10 | mean lethal concentration ([2]; V79 cells): 1.26 µmol/L | slope of net MFI versus extracellular drug concentration, low concentrations (V79 cells [3]): 61 (μmol/L)^−1 | slope of net MFI versus extracellular drug concentration, high concentrations (V79 cells [3]): 40 (μmol/L)^−1 | effect on radiotoxicity of 210Po-citrate α-particles (V79 cells [4]): enhance the radiotoxicity of α-particles | dose dependence of the increased kill (V79 cells [4]; 2.50 μM doxorubicin + 210Po-citrate): dose-dependent increase

^210Po-citrate
cell kill at this activity ([2]; 0.1 mmol/L citrate): no significant cell kill | atoms of 210Po corresponding to the mean lethal uptake ([2]; 0.21 mBq/cell): about 3600 atoms | uptake giving the mean lethal absorbed dose ([2]; V79 cells): 0.21 mBq/cell | mean lethal absorbed dose ([2]; absorbed dose to the cell nucleus, V79 cells): 1.2 Gy | cell killing observed ([2]; over the range of cellular activities employed): less than 2 logs | subcellular distribution, cytoplasm (V79 cells [5]; V79 cells): 72% | subcellular distribution, nucleus (V79 cells [5]; V79 cells): 28% | mean biologic half-time (V79 cells [5]; clearance of 210Po from V79 cells): 11.6 h | intracellular 210Po activity (V79 cells [5]): 0.03 mBq/cell | intracellular 210Po activity (V79 cells [5]; listed as 210Po): 0.03 mBq/cell and ~0.02 mBq/cell | effective half-time Te (V79 cells [5]; from biologic half-time and physical half-life of 138 d): 11.6 h | former value of mean lethal dose [6]: 0.7 Gy
